Results reported in patent publication US20240050513A1, “COMPOSITION FOR PREVENTING, AMELIORATING, OR TREATING DISEASE CAUSED BY PROTEIN NITRATION […] WITH TERMINAL TYROSINE AS EFFECTIVE COMPONENT” (INDUSTRY-ACADEMIC COOPERATION FOUNDATION GYEONGSANG …, priority 2021, published 2024).

Legend:
[1] = system: superoxide dismutase (SOD); assay: Hippocampal SOD activity in ischemic stroke model; type: in vivo, Mongolian gerbils; conditions: hippocampus, 200 mg/kg i.p. once, twenty-four hours after reperfusion
Description: (§1) Three-month-old male Mongolian gerbils were induced with general anesthesia using 3% isoflurane and the anesthesia was maintained with 2.5% isoflurane gas. After sterilizing the neck area, a midline incision was made to expose both common carotid arteries, and microvessel clip was used to block the blood flow for 5 minutes, inducing cerebral ischemia to simulate a stroke. During the application of the microvessel clip, the body temperature was maintained at 37.0±0.5° C., and animals undergoing sham operation were used as the control group.
After inducing ischemia, the animal was, under reperfusion, intraperitoneally administered once with YQ peptide at a dose of 200 mg/kg. Two hours or twenty-four hours after the reperfusion, the animal was anesthetized with avertin. Then, the skull was quickly opened, and the brain was rapidly removed. The hippocampal tissue was collected and rapidly frozen in liquid nitrogen, then stored in a deep freezer. Subsequently, the activities of superoxide dismutase (SOD) and catalase (CAT) were measured by using SOD colorimetric activity kit and CAT colorimetric activity kit, respectively.

[2] = system: glutamine synthetase (GS); assay: Hippocampal glutamine synthetase activity in kainic acid epileptic seizure model
Description: Kainic acid (KA) was dissolved in saline by heating in a water bath, resulting in a 4.5 mg/ml KA solution. The resulting KA solution was then intraperitoneally injected at a dose of 36 mg/kg, and seizure level and symptoms were recorded for 2 hours. The brain tissues (prefrontal cortex and hippocampus) of the mice that survived 16 hours or 5 days after the KA injection were collected.
To a 96-well plate, 2 μl of hippocampal homogenate was added, and 50 μl of 50 mM imidazole-HCl buffer (pH 6.8) were added to adjust the volume to 50 μl. Then, 50 μl of GS assay buffer (50 mM imidazole-HCl, pH 6.8, 25 mM L-glutamine, 12.5 mM hydroxylamine, 12.5 mM sodium arsenate, 1 mM MnCl2, and 0.08 mM ADP) were added and the reaction was allowed to occur at 37° C. for approximately 40 minutes. […] To terminate the reaction, 100 μl of stop solution (90 mM FeCl3, 1.8 N HCl, and 1.45% w/v trichloroacetic acid) were added to both the samples and the standard substance, and the absorbance was measured at 560 nm. The GS activity in each sample was determined by comparing it with the standard curve. GS activity was expressed as the generation amount of γ-glutamylhydroxamate, which is produced as a final product, and described in unit of μM/min/μg protein.

[3] = system: ischemic stroke Mongolian gerbils; assay: Neuronal cell death in ischemic stroke model (cell count, immunohistochemical staining); type: in vivo
Description: as §1
After inducing ischemia, the animal was, under reperfusion, intraperitoneally administered with YQ peptide at a dose of 200 mg/kg, three times every 24 hours. On the fourth day, the animal was sacrificed, and brain tissues were collected to measure the number of dead neuronal cell.
Immunohistochemical staining was carried out to examine changes in neuronal cells and microglial cells and also a change in related factors in the hippocampus of an ischemic brain injury animal model. Specifically, after inducing ischemia, YQ peptide was administered intraperitoneally three times every 24 hours at a dose of 200 mg/kg under reperfusion. A control group was administered with a vehicle (i.e., 0.9% saline) instead of the peptide. On the 4th day, the animal was sacrificed, and brain tissue was collected and fixed with 4% paraformaldehyde at 4° C. Subsequently, the tissue was added to sucrose solutions of increasing concentrations (i.e., 10%, 20%, and 30%), frozen using liquid nitrogen, and sectioned into continuous slice specimens with a thickness of 30 μm. The specimens were stored in a cryoprotective solution at −20° C. The brain tissue specimen was rinsed three times for 10 minutes each with 0.01 M PBS and treated with 0.3% H2O2 for 30 minutes to eliminate endogenous peroxidase present in the tissue. To prevent any nonspecific immune reaction, the specimen was incubated for 30 minutes with 5% normal serum corresponding to each antibody. […]

[4] = system: glutamine synthetase (GS); assay: GS activity and GS tyrosine nitration in PFC, chronic immobilization stress model; type: in vivo, C57BL/6 mice; conditions: stress group
Description: Using the prefrontal cortex (PFC) lysate samples from mice obtained after the completion of chronic immobilization stress, GS activity and GS expression level were measured by following the method described above.
Furthermore, the level of tyrosine nitration within GS was measured by using immunoprecipitation (IP)-WB. The immunoprecipitation analysis of tyrosine-nitrated GS was performed using an anti-nitrotyrosine antibody (ab61392, Abcam) and Protein A/G PLUS-Agarose (Santa Cruz) according to the manufacturer's protocol.

[5] = system: azoxymethane (AOM) hyperammonemia C57BL/6 mice; assay: Azoxymethane-induced hyperammonemia model; type: in vivo
Description: They were allowed free access to water and food. The mice were divided into four groups: (1) control group (Control), (2) hyperammonemia group administered with water (Veh+AOM), (3) hyperammonemia group administered with 100 mg/kg YQ peptide (YQ100+AOM), and (4) hyperammonemia group administered with 200 mg/kg YQ peptide (YQ200+AOM). YQ peptide was administered orally once a day for four consecutive days. On the fourth day, 2 hours after the last oral administration of YQ peptide, azoxymethane (AOM) at a dose of 100 mg/kg was intraperitoneally injected to induce hyperammonemia. To prevent dehydration 12 hours after AOM administration, 200 μl of physiological saline containing 0.5% glucose were injected into the abdominal cavity.
Ammonia is a primary metabolite of amino acids and nucleic acids, and the main enzymes involved in the conversion of ammonia into urea in urea cycle are found only in liver cells. In addition, the liver tissue is also rich in enzymes such as GS (glutamine synthetase) and SOD (superoxide dismutase), which help lower ammonia level, and catalase which removes reactive oxygen species. Therefore, a change in blood ammonia level as it travels from the liver to the brain through the bloodstream serves as an important indicator of hepatic encephalopathy. Accordingly, to measure the amount of blood ammonia, a PocketChem BA PA-4140 analyzer (Arkray, Japan), which is a single-wavelength reflectance measurement analyzer, was utilized. The analyzer measures the absorbance at 635 nm (LED) wavelength after the reaction 20 μl of blood with the test strip at room temperature for 3 minutes.
Western blot analysis was performed using an antibody against nitrotyrosine.

[6] = YQ200+AOM (200 mg/kg) vs veh+AOM, p<0.05

tyrosine-glutamine [YQ]
SOD activity [1]: activity increases | activity of glutamine synthetase ([2]; kainic acid-treated animals, YQ i.p vs normal diet): statistically significantly increased | activity of the glutamine synthetase in the hippocampal tissue ([2]; survived mice after kainic acid, 3xYQ): increased | number of neuronal cells ([3]; 200 mg/kg i.p. three times every 24 hours, fourth day): increase | cells found to survive compared to the sham operation group ([3]; hippocampal CA1 region, 200 mg/kg i.p. three times every 24 hours, 4th day): approximately 60.7% | morphological changes in glial cells ([3]; immunohistochemical staining, 200 mg/kg i.p. three times): minimal morphological changes | tyrosine nitration level of GS ([4]; IP-WB, peptide diet vs normal diet): statistically significant decrease | GS activity ([4]; peptide diet (330 mg/kg) vs normal diet): statistically significant increase | expression level of nitrotyrosine in liver tissues [5, 6]: statistically significant decrease | serum ammonia concentration [5, 6]: statistically significant decrease | increase in blood ammonia caused by AOM ([5]; YQ oral once a day four days (100 or 200 mg/kg)): significantly suppressed | nitrotyrosine protein level in the liver tissue ([5]; YQ oral once a day four days, after AOM): significantly reduced
